Consider one compound from patent publication US20150057350A1, “FIBROSIS BIOMARKERS AND METHODS OF USING SAME” (ABBOTT LABORATORIES, priority 2013, published 2015).

What all share (assay type): in vivo
For one test, the system named is development of fibrosis. The test is described as follows: 10-day bed rest study: all 3 fibrosis markers taken together. As to conditions: prolonged period of physical inactivity, human subject. An excerpt:
The following inclusion criteria were verified at screening: male or female ≧60 to ≦79 years of age; body mass index (BMI) ≧20 but ≦35; ambulatory with a Short Performance Physical Battery (SPPB) score of ≧9 (fully functional with no mobility limitations); and compliance with prescribed activity level. Exclusion criteria ruled out subjects who had undergone recent major surgery, had active malignancy (excepting basal or squamous cell skin carcinoma or carcinoma in situ of the uterine cervix); history of Deep Vein Thrombosis (DVT) or other hypercoagulation disorders; refractory anemia; history of diabetes or fasting blood glucose value >126 mg/dL; presence of partial or full artificial limb; kidney disease or serum creatinine >1.4 mg/dL; evidence of cardiovascular disease assessed during resting or exercise EKG; untreated hypothyroidism; liver disease; chronic or acute GI disease; uncontrolled severe diarrhea, nausea or vomiting; were actively pursuing weight loss; were enrolled in other clinical trials; could not refrain from smoking over the bed rest study period; or could not discontinue anticoagulant therapy over bed rest period. […]
(§1) After a diet stabilization of 5 days (ambulatory period), subjects remained in bed continuously for 10 days. […] Subjects were constantly monitored by nursing staff and received a daily physical examination by the study physician. […]

The subject of test [1] is Matrix Metalloproteinase-10 (MMP-10). The test is described as follows: 10-day bed rest study in healthy elderly subjects: circulating MMP-10 (RBM Human DiscoveryMAP, serum). From the text: (§2) The following inclusion criteria were verified at screening: male or female ≧60 to ≦79 years of age; body mass index (BMI) ≧20 but ≦35; ambulatory with a Short Performance Physical Battery (SPPB) score of ≧9 (fully functional with no mobility limitations); and compliance with prescribed activity level. Exclusion criteria ruled out subjects who had undergone recent major surgery, had active malignancy (excepting basal or squamous cell skin carcinoma or carcinoma in situ of the uterine cervix); history of Deep Vein Thrombosis (DVT) or other hypercoagulation disorders; refractory anemia; history of diabetes or fasting blood glucose value >126 mg/dL; presence of partial or full artificial limb; kidney disease or serum creatinine >1.4 mg/dL; evidence of cardiovascular disease assessed during resting or exercise EKG; untreated hypothyroidism; liver disease; chronic or acute GI disease; uncontrolled severe diarrhea, nausea or vomiting; were actively pursuing weight loss; were enrolled in other clinical trials; could not refrain from smoking over the bed rest study period; or could not discontinue anticoagulant therapy over bed rest period. Potential subjects were also excluded if they were taking any medications known to affect protein metabolism (e.g., progestational agents, steroids, growth hormone, dronabinol, marijuana, HMB, free amino acid supplements, dietary supplements to aid weight loss).
(§3) The 24 healthy subjects initially involved in the study were randomized into two groups. Subjects in the treatment group received two β-hydroxy-β-methylbutyrate (HMB) sachets containing 1.5 grams of Ca-HMB (TSI, Salt Lake City, Utah), 4 grams of maltodextrin, and 200 milligrams of calcium with additional sweetener and flavoring agents. Subjects in the control group received two control sachets that were identical to the HMB sachets with the exclusion Ca-HMB. This study was a double-blinded study. Neither the investigators nor the subjects were informed of the identity of any of the study products during the clinical portion of the study. Subjects were instructed to consume a sachet twice daily by mixing a sachet into a non-caloric, non-caffeinated, non-carbonated, non-milk-based beverage of their choice. Treatment with HMB or Control was initiated 5 days prior to bed rest and was continued until the end of the rehabilitation period.
(§4) For diet stabilization over the pre-bed rest and bed rest periods, subjects were fed a metabolically controlled diet providing the RDA for protein intake (0.8 g protein/kg body weight per day). Total calorie needs were estimated using the Harris-Benedict equation for resting energy expenditure according to the following equation: For women=[655+(9.56×body weight in kg)+(1.85×height in cm)−(4.68×age in years)]×AF, and, For men=[66+(13.7×body weight in kg)+(5×height in cm)−([…]]×AF, where AF=activity factor of 1.6 for the ambulatory period and 1.35 for the bed rest period. Given the total calorie and protein intakes, the remainder of the diet was manipulated to keep the non-protein calories at about 60% from carbohydrates and 40% from fat. Water was provided ad libitum.
(§5) After a diet stabilization of 5 days (ambulatory period), subjects remained in bed continuously for 10 days. While confined to bed rest, subjects were allowed to use the bedside commode for urination or were taken in a wheelchair for toileting. Subjects were given the option of taking a sponge bath or showering in a wheelchair. Prophylactic measures were taken to detect and prevent deep vein thrombosis including a blood d-dimer test followed by an ultrasound examination if d-dimer test was positive, passive range of motion exercise during bed rest, the use of TED hose and SCD over the bed rest period. Subjects were offered medication to help mitigate reflux problems associated with being supine. Subjects were constantly monitored by nursing staff and received a daily physical examination by the study physician. […]

The subject of test [2] is Matrix Metalloproteinase-3 (MMP-3). Kind of test: 10-day bed rest study in healthy elderly subjects: circulating MMP-3 (RBM Human DiscoveryMAP, serum).
Excerpt: as §2, §3, §4, §5

The subject of test [3] is Matrix Metalloproteinase-1 (MMP-1). Kind of test: 10-day bed rest study in healthy elderly subjects: circulating MMP-1 (RBM Human DiscoveryMAP, serum).
Excerpt: as §2, §3, §4, §1

The mark [4] stands for this setting: after 10 days of bed rest, 10 HMB treated subjects.
[5] abbreviates: post- minus pre-bed rest, 10 days, n = 10, ANCOVA vs control p < 0.0001.
The mark [6] stands for this setting: serum, Day 1 of bed rest, after 5 days of Ca-HMB 1.5 g sachet twice daily, n = 10.
[7] abbreviates: serum, end of 10 days bed rest, Ca-HMB 1.5 g sachet twice daily, n = 10.

Turning to `CC(C)(O)CC(=O)O` [HMB, β-hydroxy-β-methylbutyric acid], the “effect against development of fibrosis, all 3 markers taken together” value in the test on development of fibrosis was “protective effect”. For the same compound, in test [1] (setting [4]), the “average decrease in blood levels of MMP-10” value came out at 0.09 ng/mL and the “decrease in blood levels of MMP-10” value was found to be 12%. Further, the “MMP-10 Change” value in test [1] (setting [5]) was -0.09 ± 0.04 ng/mL. For the same compound, the “effect on the decrease in blood levels of MMP-10 that occurs in untreated control subjects” value in test [1] (prolonged bed rest, vs control) is “reduces or attenuates the decrease”. For the same compound, in test [1] (setting [6]), the “MMP-10 Pre-bed rest Mean” value is 0.60 ng/mL. In addition, the “MMP-10 Post-bed rest Mean” value in test [1] (setting [7]) was 0.51 ng/mL. Besides, in test [2] (setting [4]), the “average decrease in blood levels of MMP-3” value was 2.71 ng/mL and the “change (decrease) in blood levels of MMP-3” value is on record as 25%. In addition, in test [2] (post- minus pre-bed rest, 10 days, n = 10, ANCOVA vs control p = 0.0007), the “MMP-3 Change” value is -2.71 ± 0.78 ng/mL. For the same compound, in test [2] (prolonged bed rest, vs control), the “effect on the decrease in blood levels of MMP-3 that occurs in untreated control subjects” value was “reduces or attenuates the decrease”. In test [2] (setting [6]), the “MMP-3 Pre-bed rest Mean” value turned out to be 10.90 ng/mL. For the same compound, in test [2] (setting [7]), the “MMP-3 Post-bed rest Mean” value was 8.19 ng/mL. The “average increase in circulating levels of MMP-1” value in test [3] (setting [4]) amounted to 2.17 ng/mL. In addition, the “MMP-1 Change” value in test [3] (setting [5]) was 2.17 ± 1.06 ng/mL. Also, the “effect on the increase in blood levels of MMP-1 that occurs in untreated control subjects” value in test [3] (prolonged bed rest, vs control) was “enhances the increase”. In test [3] (setting [6]), the “MMP-1 Pre-bed rest Mean” value amounted to 11.29 ng/mL. Further, in test [3] (setting [7]), the “MMP-1 Post-bed rest Mean” value stood at 13.46 ng/mL.
